Data taken from ChEMBL document CHEMBL1201862, “PubChem BioAssay data set” (2004).
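Dose response: 5 concentrations. Exposure: 48 h. Format: 96-well plates. Endpoint: linear interpolation; highest concentration if not reached. Here, GI50 denotes the concentration required for 50% inhibition of growth.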 The source made the active and inactive calls. No stated cut-off is given here; in the data, active = GI50 up to about 1.1 µM and inactive = higher.

Assays:
Test in all cases: DTP human tumour cell line panel, 48 h
786-0 = test system: 786-0
A498 = test system: A498
CAKI-1 = test system: CAKI-1
HCC 2998 = test system: HCC 2998
LOX IMVI = test system: LOX IMVI
M14 = test system: M14
MDA-MB-231 = test system: MDA-MB-231
MDA-N = test system: MDA-N
MOLT-4 = test system: MOLT-4
Malme-3M = test system: Malme-3M
NCI-H226 = test system: NCI-H226
OVCAR-4 = test system: OVCAR-4
PC-3 = test system: PC-3
SF-268 = test system: SF-268
SF-295 = test system: SF-295
SK-MEL-28 = test system: SK-MEL-28
SK-MEL-5 = test system: SK-MEL-5
T47D = test system: T47D
UACC-257 = test system: UACC-257
UACC-62 = test system: UACC-62

Measured: GI50

CCOP(=O)(OCC)C(C#N)Cc1ccco1 (stereo not given)
inactive: 786-0 > 10 µM | A498 > 10 µM | CAKI-1 > 10 µM | HCC 2998 > 10 µM | LOX IMVI > 10 µM | M14 > 10 µM | MDA-MB-231 > 10 µM | MDA-N > 10 µM | MOLT-4 > 10 µM | Malme-3M > 10 µM | NCI-H226 > 10 µM | OVCAR-4 > 10 µM | PC-3 > 10 µM | SF-268 > 10 µM | SF-295 > 10 µM | SK-MEL-28 > 10 µM | SK-MEL-5 > 10 µM | T47D > 10 µM | UACC-257 > 10 µM | UACC-62 > 10 µM

COc1cc(C(=O)Oc2ccc3c(c2)OCO3)cc(OC)c1OC
inactive: 786-0 > 100 µM | A498 > 100 µM | CAKI-1 > 100 µM | HCC 2998 > 100 µM | LOX IMVI > 100 µM | M14 > 100 µM | MDA-MB-231 > 100 µM | MDA-N > 100 µM | MOLT-4 > 100 µM | Malme-3M > 100 µM | NCI-H226 > 100 µM | OVCAR-4 > 100 µM | PC-3 > 100 µM | SF-268 > 100 µM | SF-295 > 100 µM | SK-MEL-28 > 100 µM | SK-MEL-5 > 100 µM | T47D > 100 µM | UACC-257 > 100 µM | UACC-62 > 100 µM

CC12CC3CC/C(=N\O)C(C1)C3(N1CCOCC1)C/C2=N/O (stereo not given)
inactive: 786-0 > 100 µM | A498 > 100 µM | CAKI-1 > 100 µM | HCC 2998 > 100 µM | LOX IMVI > 100 µM | M14 > 100 µM | MDA-MB-231 > 100 µM | MDA-N > 100 µM | MOLT-4 > 100 µM | Malme-3M > 100 µM | NCI-H226 > 100 µM | OVCAR-4 > 100 µM | PC-3 > 100 µM | SF-268 > 100 µM | SF-295 > 100 µM | SK-MEL-28 > 100 µM | SK-MEL-5 > 100 µM | T47D > 100 µM | UACC-257 > 100 µM | UACC-62 > 100 µM

CC(C)SC(=S)Sc1c(Cl)c(Cl)nc(Cl)c1Cl
inactive: 786-0 2.33 µM | A498 17.1 µM | CAKI-1 2.84 µM | HCC 2998 3.31 µM | LOX IMVI 2.39 µM | M14 12.4 µM | MDA-MB-231 12.7 µM | MDA-N 5.27 µM | MOLT-4 2.65 µM | Malme-3M 15.7 µM | NCI-H226 24.9 µM | OVCAR-4 13.6 µM | PC-3 4.93 µM | SF-268 16.9 µM | SF-295 16.3 µM | SK-MEL-28 18.7 µM | SK-MEL-5 14.8 µM | T47D 1.96 µM | UACC-257 3.52 µM | UACC-62 9.35 µM

N=C(N)SCc1ccc(Cl)c2ccccc12.O=[N+]([O-])c1ccc(O)c([N+](=O)[O-])c1
inactive: 786-0 12.4 µM | A498 9.4 µM | CAKI-1 11.7 µM | HCC 2998 2.04 µM | LOX IMVI 14.9 µM | M14 13 µM | MDA-MB-231 12.7 µM | MDA-N 11.1 µM | MOLT-4 1.4 µM | Malme-3M 10 µM | NCI-H226 12.4 µM | OVCAR-4 10.9 µM | PC-3 12.6 µM | SF-268 15.4 µM | SF-295 9.91 µM | SK-MEL-28 12.6 µM | SK-MEL-5 8.61 µM | T47D 5.35 µM | UACC-257 4.19 µM | UACC-62 12.5 µM

CCOP(=O)(O)C(C)(C)NC
inactive: 786-0 > 100 µM | A498 > 100 µM | CAKI-1 > 10 µM | HCC 2998 > 100 µM | LOX IMVI > 100 µM | M14 > 100 µM | MDA-MB-231 > 100 µM | MDA-N > 100 µM | MOLT-4 > 100 µM | Malme-3M > 100 µM | NCI-H226 > 100 µM | OVCAR-4 > 100 µM | PC-3 > 100 µM | SF-268 > 100 µM | SF-295 > 100 µM | SK-MEL-28 > 100 µM | SK-MEL-5 > 100 µM | T47D > 100 µM | UACC-257 > 100 µM | UACC-62 > 100 µM

CC(C)(C)OC(=O)[C@@H]1CCC(=O)N1C1(c2ccccc2)c2ccccc2-c2ccccc21
inactive: 786-0 38.8 µM | A498 64.7 µM | CAKI-1 88.5 µM | HCC 2998 52.8 µM | LOX IMVI 17.9 µM | M14 50.4 µM | MDA-MB-231 16.4 µM | MDA-N 29.4 µM | MOLT-4 25.9 µM | Malme-3M 33.3 µM | NCI-H226 > 100 µM | OVCAR-4 28.6 µM | PC-3 29.4 µM | SF-268 > 100 µM | SF-295 19.1 µM | SK-MEL-28 28.6 µM | SK-MEL-5 23.9 µM | T47D 44.9 µM | UACC-257 77.1 µM | UACC-62 33.6 µM
